Test results reported in article PMC11434480, “Discovery and Optimization of Ergosterol Peroxide Derivatives as Novel Glutaminase 1 Inhibitors for the Treatment of Triple-Negative Breast Cancer” (Molecules, 2024).

Legend:
MDA-MB-231 = experiment: MTT antiproliferative assay, MDA-MB-231; assay type: cell-based, human; settings: MTT, 48 h, mean of three experiments ± SD
Method: (§1) The in vitro antiproliferative activity of the novel EP derivatives (1a–h, 2a–h, 3a–h, and 4a–h) was evaluated on four different human cancer cell lines (A549, HepG2, MCF-7, and MDA-MB-231) using an MTT assay.
(§2) Cells containing 10% fetal bovine serum (FBS; WISENT, Nanjing, China) were cultured in an L-15 culture medium (L-15, BOSTER, Wuhan, China) in an incubator at 37 °C. The cells were then inoculated into 96-well plates at a density of 5 × 10^3/well, cultured in 100 μL L-15 medium for 24 h, and incubated with the compound to be tested for 48 h. Next, 20 μL of MTT (5 mg/mL) solution was added and incubated at 37 °C for 4 h away from light. A resorption culture medium was then supplemented with 150 μL DMSO per well. The absorbance was measured at 570 nm using an enzymometer (SAFIRE2, Tecan, Swiss Confederation, Männedorf, Switzerland). The cytotoxic activity was presented in terms of half the inhibition rate.

HepG2 = experiment: MTT antiproliferative assay, HepG2; assay type: cell-based, human; settings: mean of three experiments ± SD
Method: as §1, §2

A549 = experiment: MTT antiproliferative assay, A549; assay type: cell-based, human; settings: mean of three experiments ± SD
Method: as §1, §2

MCF-7 = experiment: MTT antiproliferative assay, MCF-7; assay type: cell-based, human; settings: mean of three experiments ± SD
Method: as §1, §2

human GLS1 = molecular target: T1, human GLS1 (Homo sapiens, UniProt O94925); experiment: GLS1 inhibitor screening kit in MDA-MB-231 cells; assay type: cell-based; settings: 48 h, read-out: GLS1 inhibition IC50
T1 sequence (O94925 55-669): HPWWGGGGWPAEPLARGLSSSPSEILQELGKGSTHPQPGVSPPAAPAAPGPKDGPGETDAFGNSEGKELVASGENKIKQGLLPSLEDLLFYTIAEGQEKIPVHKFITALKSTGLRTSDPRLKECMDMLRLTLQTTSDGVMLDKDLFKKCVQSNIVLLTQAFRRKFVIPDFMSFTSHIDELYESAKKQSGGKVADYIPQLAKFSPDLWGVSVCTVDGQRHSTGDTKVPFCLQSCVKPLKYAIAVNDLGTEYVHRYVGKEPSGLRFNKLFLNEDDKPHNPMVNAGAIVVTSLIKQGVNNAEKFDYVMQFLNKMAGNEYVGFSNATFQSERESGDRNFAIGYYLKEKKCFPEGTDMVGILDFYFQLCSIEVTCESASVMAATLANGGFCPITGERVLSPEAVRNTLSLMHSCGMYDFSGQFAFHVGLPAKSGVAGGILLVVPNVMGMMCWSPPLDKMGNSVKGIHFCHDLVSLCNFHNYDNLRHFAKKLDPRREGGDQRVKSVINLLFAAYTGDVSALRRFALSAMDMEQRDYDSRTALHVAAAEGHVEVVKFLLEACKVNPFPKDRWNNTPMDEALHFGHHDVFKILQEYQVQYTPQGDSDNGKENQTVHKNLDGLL
Method: The GLS1 inhibitory activity of compound 3g in MDA-MB-231 cells was evaluated using a GLS1 inhibitor screening kit.
MDA-MB-231 cells were cultured for 24 h and then incubated with different concentrations of 3g or 0.1%DMSO for 48 h and washed with PBS 1–2 times. The cells were then collected, subjected to ultrasound in an ice bath for 5 min, and centrifuged at 4 °C and 1200 g for 15 min. Next, the GLS1 activity in human GLS1 was evaluated according to the manufacturer’s guidelines using a GLS1 screening kit (Sangon Biotech #D799306, Shanghai, China) in a 96-well plate (Corning # 351172, New York, NY, USA).

SMILES	IC50 (MDA-MB-231; Homo sapiens, MDA-MB-231)	IC50 (HepG2; Homo sapiens, HepG2, 48 h)	IC50 (A549; Homo sapiens, A549, 48 h)	IC50 (MCF-7; Homo sapiens, MCF7, 48 h)	IC50 (human GLS1)	IC50 (MDA-MB-231)	IC50 (HepG2; 48 h)	IC50 (A549; 48 h)	IC50 (MCF-7; 48 h)
CC(C)C(C)C=CC(C)C1CCC2C1(C)CCC1C23C=CC2(CC(OC(=O)CCCC(=O)Nc4nncs4)CCC12C)OO3 (centres unmarked) [Compound 3a, Ergosterol peroxide-3-(5-((1,3,4-thiadiazol-2-yl)amino)-5-oxopentanoate)]	7.06 ± 0.35 µM	10.7 ± 0.82 µM	9.73 ± 0.42 µM	5.16 ± 0.93 µM	–	–	–	–	–
CC(C)C(C)C=CC(C)C1CCC2C1(C)CCC1C23C=CC2(CC(OC(=O)c4ccccc4C(=O)Nc4nccs4)CCC12C)OO3 (centres unmarked) [Compound 4b, Ergosterol peroxide-3-(2-oxo-5-((thiazol-2-yl)carbamoyl)benzoate)]	15.8 ± 1.26 µM	11 ± 0.76 µM	12.8 ± 1.08 µM	12.6 ± 0.94 µM	–	–	–	–	–
CC(C)[C@@H](C)/C=C/[C@@H](C)[C@H]1CC[C@@H]2[C@]1(C)CC[C@H]1[C@]23C=C[C@]2(C[C@@H](O)CC[C@]12C)OO3 [EP, Ergosterol peroxide]	17.3 ± 1.05 µM	18.1 ± 1.71 µM	15 ± 1.27 µM	19.4 ± 1.5 µM	33.7 µM	–	–	–	–
CC(C)C(C)C=CC(C)C1CCC2C1(C)CCC1C23C=CC2(CC(OC(=O)c4ccccc4C(=O)Nc4nc5ccc(F)cc5s4)CCC12C)OO3 (centres unmarked) [Compound 4d, Ergosterol peroxide-3-(2-((6-fluorobenzo[d]thiazol-2-yl)carbamoyl)benzoate)]	11.3 ± 0.44 µM	15.3 ± 1.31 µM	8.99 ± 0.81 µM	10.6 ± 0.52 µM	–	–	–	–	–
CC(C)C(C)C=CC(C)C1CCC2C1(C)CCC1C23C=CC2(CC(OC(=O)CCCC(=O)Nc4nc5cc(F)ccc5s4)CCC12C)OO3 (centres unmarked) [Compound 3c, Ergosterol peroxide-3-(5-((5-fluorobenzo[d]thiazol-2-yl)amino)-5-oxopentanoate)]	12 ± 0.72 µM	11.9 ± 1.07 µM	11.4 ± 0.79 µM	11 ± 0.62 µM	–	–	–	–	–
O=C(Cc1ccccc1)Nc1nnc(CCSCCc2nnc(NC(=O)Cc3ccccc3)s2)s1 [BPTES, reference compound]	9.1 ± 0.26 µM	60.2 ± 8.35 µM	49.1 ± 11.6 µM	21.3 ± 6.89 µM	–	–	–	–	–
CC(C)C(C)C=CC(C)C1CCC2C1(C)CCC1C23C=CC2(CC(OC(=O)c4ccccc4C(=O)Nc4ccc5ccccc5c4)CCC12C)OO3 (centres unmarked) [Compound 4h, Ergosterol peroxide-3-(2-(naphthalen-2-ylcarbamoyl)benzoate)]	14.6 ± 0.47 µM	14.3 ± 1.55 µM	10.1 ± 1.16 µM	11.4 ± 0.42 µM	–	–	–	–	–
CC(C)C(C)C=CC(C)C1CCC2C1(C)CCC1C23C=CC2(CC(OC(=O)CCCC(=O)Nc4ccc(F)cc4)CCC12C)OO3 (centres unmarked) [Compound 3f, Ergosterol peroxide-3-(5-((4-fluorophenyl)amino)-5-oxopentanoate)]	7.19 ± 0.39 µM	9.79 ± 1.01 µM	11.1 ± 0.93 µM	8.09 ± 0.71 µM	–	–	–	–	–
CC(C)C(C)C=CC(C)C1CCC2C1(C)CCC1C23C=CC2(CC(OC(=O)CCCC(=O)Nc4nc5ccc(F)cc5s4)CCC12C)OO3 (centres unmarked) [Compound 3d, Ergosterol peroxide-3-(5-((6-fluorobenzo[d]thiazol-2-yl)amino)-5-oxopentanoate)]	10.8 ± 0.53 µM	14.7 ± 0.35 µM	9.09 ± 0.64 µM	8.39 ± 0.34 µM	–	–	–	–	–
CC(C)C(C)C=CC(C)C1CCC2C1(C)CCC1C23C=CC2(CC(OC(=O)c4ccccc4C(=O)Nc4nncs4)CCC12C)OO3 (centres unmarked) [Compound 4a, Ergosterol peroxide-3-(2-((1,3,4-thiadiazol-2-yl)carbamoyl)benzoate)]	10.2 ± 0.62 µM	8.08 ± 0.64 µM	7.07 ± 0.47 µM	8.2 ± 0.68 µM	–	–	–	–	–
CC(C)C(C)C=CC(C)C1CCC2C1(C)CCC1C23C=CC2(CC(OC(=O)c4ccccc4C(=O)Nc4ccc(F)cc4)CCC12C)OO3 (centres unmarked) [Compound 4f, Ergosterol peroxide-3-(2-((4-fluorophenyl)carbamoyl)benzoate)]	13.4 ± 1.24 µM	9.02 ± 0.87 µM	18.8 ± 0.64 µM	9.64 ± 0.51 µM	–	–	–	–	–
CC(C)C(C)C=CC(C)C1CCC2C1(C)CCC1C23C=CC2(CC(OC(=O)CCCC(=O)Nc4ccc5ccccc5c4)CCC12C)OO3 (centres unmarked) [Compound 3h, Ergosterol peroxide-3-(5-(naphthalen-2-ylamino)-5-oxopentanoate)]	4.98 ± 0.84 µM	13.8 ± 1.3 µM	9.3 ± 0.66 µM	8.65 ± 0.73 µM	–	–	–	–	–
CC(C)C(C)C=CC(C)C1CCC2C1(C)CCC1C23C=CC2(CC(OC(=O)CCCC(=O)Nc4nccs4)CCC12C)OO3 (centres unmarked) [Compound 3b, Ergosterol peroxide-3-(5-oxo-5-(thiazol-2-ylamino)pentanoate)]	6.92 ± 0.28 µM	13.1 ± 1.22 µM	11.7 ± 0.82 µM	9.47 ± 0.75 µM	–	–	–	–	–
CC(C)C(C)C=CC(C)C1CCC2C1(C)CCC1C23C=CC2(CC(OC(=O)c4ccccc4C(=O)Nc4nc5cc(F)ccc5s4)CCC12C)OO3 (centres unmarked) [Compound 4c, Ergosterol peroxide-3-(2-((5-fluorobenzo[d]thiazol-2-yl)carbamoyl)benzoate)]	7.32 ± 0.58 µM	11.4 ± 0.98 µM	11.7 ± 1.02 µM	10.7 ± 0.47 µM	–	–	–	–	–
CC(C)C(C)C=CC(C)C1CCC2C1(C)CCC1C23C=CC2(CC(OC(=O)CCCC(=O)Nc4ccccc4)CCC12C)OO3 (centres unmarked) [Compound 3e, Ergosterol peroxide-3-(5-oxo-5-(phenylamino)pentanoate)]	4.78 ± 0.41 µM	14.9 ± 1.13 µM	10.5 ± 0.79 µM	11.6 ± 0.66 µM	–	–	–	–	–
N.N.[Cl][Pt][Cl] [Cisplatin, reference compound]	–	–	–	–	–	10.4 ± 0.34 µM	6.29 ± 0.3 µM	11.6 ± 0.38 µM	4.23 ± 0.24 µM
